Data set [1] relates to 3T3-L1 adipocytes. As to the kind of experiment: Free Fatty Acid Levels in 3T3-L1 Adipocytes. The data set is classed as cell-based, mouse. To be noted: for Free Fatty Acid Levels Expressed as a Percent Isoproterenol Control, Percent of Control Value: peptides at 25 μM, 20-22 hours then isoproterenol (1 nM) 3 hours. The method, then: Following 12-15 days' differentiation, test peptides were added to a final concentration of 25 μM and incubated for 20-22 hours in Adipocyte Maintenance Medium. After 20-22 hours, isoproterenol (1 nM) was added to all wells except untreated controls and test peptides were replenished. Cells were incubated for a further 3 hours in Assay Buffer (Zen-Bio). Free fatty acid concentrations in the media were determined using a Free Fatty Acid Assay Kit (Zen-Bio) according to the manufacturer's instructions using a plate reader (540 nm). Absorbance values were corrected for untreated background and expressed relative to isoproterenol treated cells. Treatment with isoproterenol (1 nM) alone was used as the free fatty acid level stimulatory control. The relative standard deviation of the isoproterenol control was <10%. […] Free fatty acid levels for insulin (100 nM) treatment were <5% of the isoproterenol control value.

Data set [2] concerns MDA-MB-231 cells. As to the kind of experiment: Caspase 3/7 Activity in MDA-MB-231 Cells (Caspase-Glo 3/7). The data set is classed as cell-based, human. To be noted: peptides at 10 μM, 18 hours, relative to DMSO control. The method, then: The effect of the peptides on cell death/survival can be assessed using a caspase-3 assay. Peptides were dissolved with DMSO at 10 mM stock. […] Staurosporine (Selleckchem) was dissolved with DMSO at 1 mM stock. Caspase-Glo 3/7 Assay Reagent was purchased from Promega (Madison, Wis.). MDA-MB-231 human breast cancer cell line was purchased from American Type Culture Collection (Manassas, Va.). MDA-MB-231 cells were grown in DMEM Medium supplemented with 10% FBS. 100 μg/ml penicillin and 100 μg/ml streptomycin were added to the culture medium. Cultures were maintained at 37° C. in a humidified atmosphere of 5% C02 and 95% air. MDA-MB-231 cells were incubated with test peptides in duplicate at 10 μM at 37° C. in a humidified atmosphere of 5% C02 and 95% air for 18 hours. 25 μl of Caspase-Glo 3/7 Assay Reagent was added to each well and incubated at 37° C., 5% C02 for 1 hour. Luminescence for each sample well on the plate was measured by Envision 2104 Multilabel Reader (PerkinElmer, Santa Clara, Calif.). Activity was calculated relative to DMSO control.

The test system of data set [3] is MCF-7 cells. The conditions noted are these: human, 72 h, 10 µM. The procedure:
Peptides and reference compound staurosporine (Selleckchem) were dissolved with DMSO at 10 mM stock. CellTiter 96® AQueous One Solution Reagent (MTS assay reagent) was purchased from Promega (Madison, Wis.). MCF-7 human breast cancer cell line was purchased from American Type Culture Collection (Manassas, Va.). MCF-7 cells were grown in EMEM Medium supplemented with 10% FBS and 0.01 mg/ml human recombinant insulin. 100 μg/ml penicillin and 100 μg/ml streptomycin were added to the culture medium. Cells were incubated with test peptides at 10 μM at 37° C. in a humidified atmosphere of 5% C02 and 95% air for 72 hours. 5 μl of CellTiter 96® AQueous One Solution Reagent (MTS assay reagent) was added to each well and incubated at 37° C., 5% C02 for 5 hours. Absorbance at 492 nm was recorded by Envision 2104 Multilabel Reader. Treatment with DMSO alone was used as the cell viability activity control.

Data set [4] deals with MDA-MB-231 cells. As to the kind of experiment: MTS Assay in MDA-MB-231 Cells (cell viability). The data set is classed as cell-based. To be noted: human, 72 h. The procedure: Test compounds and reference compound staurosporine (Selleckchem) were all dissolved with DMSO at 10 mM stock. […] Activity was calculated relative to DMSO control. […] Cell viability was 3% of the DMSO control value for Staurosporine (10 uM).

The text below walks through data of patent publication US20220324911A1, “THERAPEUTIC PEPTIDES” (COHBAR, INC., priority 2019, published 2022).

Non-standard residues stand in square brackets, D forms with d. No end group written: not given here.

As to 3 (SLLIQCQSGHLR) [compound 3], the “Free Fatty Acid Levels Expressed as a Percent Isoproterenol Control, Percent of Control Value” in data set [1] came to 136%.

Consider 4 (LLIQCQSGHLR) [compound 4], for which the “Free Fatty Acid Levels Expressed as a Percent Isoproterenol Control, Percent of Control Value” in data set [1] is reported as 141%.

With 5 ([dA]LIQCQSGHLR) [compound 5], the “Free Fatty Acid Levels Expressed as a Percent Isoproterenol Control, Percent of Control Value” in data set [1] is 159%.

Regarding 8 (TCWLIVDIGLLIVSSVF) [compound 8], the “Free Fatty Acid Levels Expressed as a Percent Isoproterenol Control, Percent of Control Value” in data set [1] was found to be 129%.

On to 9 ([dA]TCWLIVDIGLLIVSSVF) [compound 9], for which the “Free Fatty Acid Levels Expressed as a Percent Isoproterenol Control, Percent of Control Value” in data set [1] stood at 125%.

Take “10 ([dA]TCWLIVDIGLLIVSS[dA]F) [compound 10]”: the “Free Fatty Acid Levels Expressed as a Percent Isoproterenol Control, Percent of Control Value” in data set [1] is 138%.

As for 13 (TGWARGLISTGRV) [compound 13], in data set [1], the “Free Fatty Acid Levels Expressed as a Percent Isoproterenol Control, Percent of Control Value” was 87%.

With “14 (TGWARGLISTGR; not fully specified) [compound 14]”, the “Free Fatty Acid Levels Expressed as a Percent Isoproterenol Control, Percent of Control Value” in data set [1] is on record as 102%.

With 15 (TGW[dA]RGLISTGR) [compound 15], in data set [1], the “Free Fatty Acid Levels Expressed as a Percent Isoproterenol Control, Percent of Control Value” is 102%.

Turning to 18 (QTVPNKPTGPKLPNLH) [compound 18], the “Free Fatty Acid Levels Expressed as a Percent Isoproterenol Control, Percent of Control Value” in data set [1] was found to be 109%.

On to 19 (QTVPNKPT[dA]PKLPNLH) [compound 19], for which the “Free Fatty Acid Levels Expressed as a Percent Isoproterenol Control, Percent of Control Value” in data set [1] turned out to be 89%.

Take “20 (QTVPNKPT[dA]PKLPN[dA]) [compound 20]”: the “Free Fatty Acid Levels Expressed as a Percent Isoproterenol Control, Percent of Control Value” in data set [1] turned out to be 108%.

In the case of MQTVPNKPTGPKLPNLH [compound 17], the “Caspase 3/7 Activity, Percent of Control Activity” value (from here on “Caspase 3/7 Activity, Percent”) in data set [2] came to 65%. For the same substance, the “Free Fatty Acid Levels Expressed as a Percent Isoproterenol Control, Percent of Control Value” in data set [1] stood at 112%. Besides, the “MTS Assay cell viability, Percent of Control Activity” value (“MTS Assay cell viability, Percent” for short) is recorded as 68% in data set [3] and 85% in data set [4].

As to MSLLIQCQSGHLR [compound 2], the “Caspase 3/7 Activity, Percent” value in data set [2] came to 92%. Further, the “Free Fatty Acid Levels Expressed as a Percent Isoproterenol Control, Percent of Control Value” in data set [1] came to 162%. The “MTS Assay cell viability, Percent” value is recorded as 59% in data set [3] and 90% in data set [4].

Consider MTCWLIVDIGLLIVSSVF [compound 7], for which the “Caspase 3/7 Activity, Percent” value in data set [2] was found to be 56%. Further, the “Free Fatty Acid Levels Expressed as a Percent Isoproterenol Control, Percent of Control Value” in data set [1] was 160%. The figures for the “MTS Assay cell viability, Percent” value in data set [3] and in data set [4] were 52% and 88%, respectively.

Consider MTGWARGLISTGRV [compound 12], for which the “Caspase 3/7 Activity, Percent” value in data set [2] was 73%. The “Free Fatty Acid Levels Expressed as a Percent Isoproterenol Control, Percent of Control Value” in data set [1] is reported as 107%. Also, the “MTS Assay cell viability, Percent” value worked out at 62% in data set [3] and 89% in data set [4].

Take insulin [reference compound]: in data set [1] (insulin 100 nM), the “Free fatty acid levels, % of the isoproterenol control value” is on record as under 5%.
